{"source": "patent US20050220888A1", "about": "“Controlled release compositions and methods for using same” (priority 2002, published 2005)", "key": {"[1]": {"system": "IL-6 production by HUVEC cells", "assay": "Inhibition of histamine-induced IL-6 mRNA production (RT-PCR against HPRT)", "assay_type": "cell-based, human", "conditions": "5 hours", "description": "Various assays also exist for identifying a highest pharmacological activity enantiomer of a given pharmacologically active agent. Where the pharmaceutical activity is as a histamine antagonist, IL-6 production by HUVEC cells is a cell biomarker of histamine activity and is used to assess the relative antagonistic activity of prospective H1 blockers. IL-6 production in human endothelial cells is known to be induced by histamine due to H1 and H2 receptor binding with H1 the dominant effect. Delneste, et al. As H1 antagonism is directly linked to reduced emesis during motion sickness treatment, this assay serves as an in vitro methodology for the selection of potential motion sickness and antihistamine candidates. Realtime RT-PCR analysis of IL-6 mRNA synthesis in HUVEC cells stimulated with histamine is employed as an in vitro assay for the analysis of the relative efficacy of potential antihistaminic agents.\nA preferred assay for measuring activity of phenothiazine and other histamine antagonists comprises: providing at least a first viable culture and a second viable culture comprising Huvec cells; exposing the first viable culture to a first combination comprising histamine and the (+)-enantiomer of the phenothiazine under conditions effective to inhibit IL-6 mRNA expression; exposing the second viable culture to a combination comprising histamine and the (−)-enantiomer of the phenothiazine under conditions effective to inhibit IL-6 mRNA expression; measuring inhibition of IL-6 mRNA expression induced by the first combination and the second combination after at least four hours to identify a (+)-enantiomer inhibition value and a (−)-enantiomer inhibition value; and selecting as the highest pharmacological activity enantiomer the enantiomer having the greater inhibition value selected from the group consisting of the (+)-enantiomer inhibition value and the (−)-enantiomer inhibition value.\nHuvec cells were plated and grown to confluence in 6-well plates. […] Total RNA was isolated using Tri-reagent and subjected to reverse transcription polymerase chain reaction (RT-PCR) analysis of IL-6 production using semiquantitative analysis against HPRT expression (control gene).\nThe procedures of Example 3 were repeated using the (+)-enantiomer (#2) and the (−)-enantiomer (#1) of EPZ at 10^−5 molar and 10^−6 molar, and TPZ at 10^−5 molar."}, "[2]": {"conditions": "encapsulated in a variety of shell materials, administered to beagles; cited from earlier work"}, "L929 lung fibroblast": {"system": "L929 lung fibroblast", "conditions": "shown by previous studies; cited from earlier work"}}, "note": "Counter-ions that a name gives are not always drawn.", "data": [{"smiles": "CC(CN1c2ccccc2Sc2ccccc21)N(C)C", "note": "(racemic) [Promethazine, promethazine hydrochloride]", "values": [{"measurement": "inhibition of histamine stimulation of IL-6 production", "setting": "[1]; 10^−5 M with Histamine 10^−4 M, relative to cells stimulated only with histamine", "value": 50, "unit": "%"}, {"measurement": "nasal irritation", "setting": "[2]", "value": "severe nasal irritation was observed"}]}, {"smiles": "CC(CN1c2ccccc2Sc2ccccc21)N(C)C.Cl", "note": "(single isomer, unassigned; (+)) [(+) enantiomer, (+)-Promethazine hydrochloride]", "values": [{"measurement": "IL-6 production reduced to % of the histamine stimulated cell", "setting": "[1]; 10^−5 M with Histamine 10^−4 M", "value": 90, "unit": "%"}]}, {"smiles": "CC(CN1c2ccccc2Sc2ccccc21)N(C)C.Cl", "note": "(single isomer, unassigned; (-)) [(−) enantiomer, (−)-Promethazine hydrochloride]", "values": [{"measurement": "reduction in IL-6 production", "setting": "[1]; 10^−5 M with Histamine 10^−4 M", "value": 50, "unit": "%"}]}, {"smiles": "C=C(C)C(=O)OCC(O)COc1ccc(C(C)(C)c2ccc(OCC(O)COC(=O)C(=C)C)cc2)cc1", "note": "(stereo not drawn) [BisGMA]", "values": [{"measurement": "cytotoxicity of control in this assay", "setting": "L929 lung fibroblast", "value": "significantly cytotoxic"}]}, {"smiles": "NCCc1c[nH]cn1", "note": "[Histamine]", "values": [{"measurement": "increase in IL-6 mRNA production", "setting": "[1]; Histamine alone 10^−4 M, versus endogenous production", "value": 50, "unit": "%"}]}]}
